Test system: Dspp gene
Experiment: Dspp mRNA level in human dental pulp cells treated with peptide (real-time PCR)
Format: cell-based
Conditions: hDPCs, peptide 10 μg/ml, 48 hours; ratio relative to Dspp mRNA level of untreated control; GAPDH internal control; triplicate
Protocol: Human dental pulp cells were separated from wisdom teeth of adults (aged 18-22) at the School of Dentistry, Seoul National University. In detail, all experiments were performed after the approval of the Institutional Review Board and the informed consent from patients. Wisdom teeth were fractured according to a method of Jung HS et al. (J Mol Histol.(2011)) to expose the dental pulps, and dental pulp tissues were separated with forceps. Each of the separated dental pulp tissues was cut into small pieces with a razor blade, put in a 60-mm dish, covered with a coverslip, and then cultured in a Dulbecco's modified Eagle's medium. It has been known that human dental pulp cells can differentiate into odontoblast, osteoblast, cementoblast, and periodontal ligament cells under various conditions (Tissue Eng Part A. 2014 April; 20 (7-8): 1342-51).
Total RNA was extracted from human dental pulp cells (hDPCs), and human bone marrow mesenchymal stem cells (hBMSCs) with TRIzol reagent. 2 μg of the total RNA, 1 μl of reverse transcriptase, and 0.5 μg of oligo (oligo; dT) were used to synthesize cDNA. The synthesized cDNA was used in a real-time polymerase chain reaction. The real-time polymerase chain reaction was performed on an ABI PRISM 7500 sequence detection system (Applied Biosystems) and an SYBR GREEN PCR Master Mix (Takara, Japan). The real-time polymerase chain reaction was performed under conditions of 94° C., 1 min; 95° C., 15 sec; 60° C., 34 sec for 40 cycles. Results were analyzed by a comparative cycle threshold (CT) method. And the used primers are as follows (Table 17).
The human dental pulp cells (hDPCs) cultured in Example 3 were treated with the peptides (concentration of 10 μg/ml) of each group synthesized in Example 1-1, and cultured for 48 hours. Then, mRNA levels of an odontoblast differentiation marker Dspp gene expressed in the human dental pulp cells were measured, and a ratio of the measured Dspp mRNA level relative to a Dspp mRNA level measured in a control group was calculated, respectively (Tables 18 to 33).
The expression level of the Dspp gene was measured through RT-PCR and real-time PCR analysis described in Example 1-4. In this regard, GAPDH gene was used as an internal control. The experiments were performed in triplicate, and then mean values and standard deviations thereof were taken as measured values. The base sequence of the primers is described in Table 17 above.

Row | Substance | mRNA level of Dspp gene, Mean
1 | 1 (KYQRRKK; Novel peptide) [compound 1] | 7.371
2 | 2 (KYQRRKR; Novel peptide) [compound 2] | 7.171
3 | 3 (KYQRRRK; Novel peptide) [compound 3] | 6.512
4 | 4 (KYQRRRR; Novel peptide) [compound 4] | 7.071
5 | 5 (KYQRKKK; Novel peptide) [compound 5] | 6.893
6 | 6 (KYQRKRK; Novel peptide) [compound 6] | 6.931
7 | 7 (KYQRKKR; Novel peptide) [compound 7] | 6.881
8 | 8 (KYQRKRR; Novel peptide) [compound 8] | 6.531
9 | 9 (KYRQRKK; Novel peptide) [compound 9] | 7.543
10 | 10 (KYRQRKR; Novel peptide) [compound 10] | 6.996
11 | 11 (KYRQRRK; Novel peptide) [compound 11] | 7.385
12 | 12 (KYRQRRR; Novel peptide) [compound 12] | 7.548
13 | 13 (KYRQKKK; Novel peptide) [compound 13] | 6.655
14 | 14 (KYRQKRK; Novel peptide) [compound 14] | 6.839
15 | 15 (KYRQKKR; Novel peptide) [compound 15] | 6.764
16 | 16 (KYRQKRR; Novel peptide) [compound 16] | 7.739
17 | 17 (KYKQRKK; Novel peptide) [compound 17] | 7.712
18 | 18 (KYKQRKR; Novel peptide) [compound 18] | 7.319
19 | 19 (KYKQRRK; Novel peptide) [compound 19] | 7.931
20 | 20 (KYKQRRR; Novel peptide) [compound 20] | 7.553
21 | 21 (KYKQKKK; Novel peptide) [compound 21] | 7.893
22 | 22 (KYKQKRK; Novel peptide) [compound 22] | 7.412
23 | 23 (KYKQKKR; Novel peptide) [compound 23] | 9.171
24 | 24 (KYKQKRR; Novel peptide) [compound 24] | 8.512
25 | 25 (KYQQRKK; Novel peptide) [compound 25] | 2.491

Row | Substance | mRNA level of Dspp gene, Mean
26 | 26 (KYQQRKR; Novel peptide) [compound 26] | 2.623
27 | 27 (KYQQRRK; Novel peptide) [compound 27] | 2.213
28 | 28 (KYQQRRR; Novel peptide) [compound 28] | 2.781
29 | 29 (KYQQKKK; Novel peptide) [compound 29] | 2.926
30 | 30 (KYQQKRK; Novel peptide) [compound 30] | 2.011
31 | 31 (KYQQKKR; Novel peptide) [compound 31] | 2.432
32 | 32 (KYQQKRR; Novel peptide) [compound 32] | 2.303
33 | 33 (KYRRRKK; Novel peptide) [compound 33] | 3.615
34 | 34 (KYRRRKR; Novel peptide) [compound 34] | 3.727
35 | 35 (KYRRRRK; Novel peptide) [compound 35] | 3.017
36 | 36 (KYRRRRR; Novel peptide) [compound 36] | 3.256
37 | 37 (KYRRKKK; Novel peptide) [compound 37] | 3.303
38 | 38 (KYRRKRK; Novel peptide) [compound 38] | 2.099
39 | 39 (KYRRKKR; Novel peptide) [compound 39] | 3.412
40 | 40 (KYRRKRR; Novel peptide) [compound 40] | 3.109
41 | 41 (KYKRRKK; Novel peptide) [compound 41] | 2.937
42 | 42 (KYKRRKR; Novel peptide) [compound 42] | 2.808
43 | 43 (KYKRRRK; Novel peptide) [compound 43] | 2.435
44 | 44 (KYKRRRR; Novel peptide) [compound 44] | 2.517
45 | 45 (KYKRKKK; Novel peptide) [compound 45] | 3.051
46 | 46 (KYKRKRK; Novel peptide) [compound 46] | 2.733
47 | 47 (KYKRKKR; Novel peptide) [compound 47] | 2.439
48 | 48 (KYKRKRR; Novel peptide) [compound 48] | 2.602
49 | 49 (KYQKRKK; Novel peptide) [compound 49] | 1.631
50 | 50 (KYQKRKR; Novel peptide) [compound 50] | 1.803

Row | Substance | mRNA level of Dspp gene, Mean
51 | 51 (KYQKRRK; Novel peptide) [compound 51] | 1.569
52 | 52 (KYQKRRR; Novel peptide) [compound 52] | 1.949
53 | 53 (KYQKKKK; Novel peptide) [compound 53] | 1.422
54 | 54 (KYQKKRK; Novel peptide) [compound 54] | 1.638
55 | 55 (KYQKKKR; Novel peptide) [compound 55] | 2
56 | 56 (KYQKKRR; Novel peptide) [compound 56] | 1.909
57 | 57 (KYNKRKK; Novel peptide) [compound 57] | 2.415
58 | 58 (KYNKRKR; Novel peptide) [compound 58] | 2.677
59 | 59 (KYNKRRK; Novel peptide) [compound 59] | 2.463
60 | 60 (KYNKRRR; Novel peptide) [compound 60] | 2.089
61 | 61 (KYNKKKK; Novel peptide) [compound 61] | 1.909
62 | 62 (KYNKKRK; Novel peptide) [compound 62] | 2.752
63 | 63 (KYNKKKR; Novel peptide) [compound 63] | 2.373
64 | 64 (KYNKKRR; Novel peptide) [compound 64] | 1.829
65 | 65 (KYNRRKK; Novel peptide) [compound 65] | 2.201
66 | 66 (KYNRRKR; Novel peptide) [compound 66] | 2.072
67 | 67 (KYNRRRK; Novel peptide) [compound 67] | 2.452
68 | 68 (KYNRRRR; Novel peptide) [compound 68] | 2.343
69 | 69 (KYNRKKK; Novel peptide) [compound 69] | 1.899
70 | 70 (KYNRKRK; Novel peptide) [compound 70] | 1.947
71 | 71 (KYNRKKR; Novel peptide) [compound 71] | 2.052
72 | 72 (KYNRKRR; Novel peptide) [compound 72] | 1.739
73 | 73 (KYRNRKK; Novel peptide) [compound 73] | 2.208
74 | 74 (KYRNRKR; Novel peptide) [compound 74] | 2.105

Reference: US11390648B2, “Peptide” (HYSENSBIO, priority 2017, dated 2022)
